Data published in US20170280720A1, “ARGININE […] INHIBITORS AND USES THEREOF” (EPIZYME, INC., priority 2014, published 2017).
pIC50: −log10 of the molar value.

target: T1, human PRMT1 (Homo sapiens, UniProt Q99873); experiment: PRMT1 biochemical assay (3H-SAM Flashplate, peptide substrate); conditions: read-out: PRMT1_ IC50
T1 construct: GST-tagged PRMT1; made in house; host or cells: High Five insect cells (baculovirus, pFastBacI)
Summary of the method: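 FLAG-tagged full-length human PRMT1 (0.5 nM, GST-tagged, insect-cell expressed) preincubated 30 min at RT with compound, then biotinylated histone H4 36-50 peptide (20 nM) plus 200 nM 3H-SAM and 1.5 uM SAM in Bicine pH 7.6, 2% DMSO. 3H-methylated peptide captured on streptavidin Flashplate; IC50 from 3/4-parameter fit.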

T1 sequence (Q99873 with tags, fused parts or gaps): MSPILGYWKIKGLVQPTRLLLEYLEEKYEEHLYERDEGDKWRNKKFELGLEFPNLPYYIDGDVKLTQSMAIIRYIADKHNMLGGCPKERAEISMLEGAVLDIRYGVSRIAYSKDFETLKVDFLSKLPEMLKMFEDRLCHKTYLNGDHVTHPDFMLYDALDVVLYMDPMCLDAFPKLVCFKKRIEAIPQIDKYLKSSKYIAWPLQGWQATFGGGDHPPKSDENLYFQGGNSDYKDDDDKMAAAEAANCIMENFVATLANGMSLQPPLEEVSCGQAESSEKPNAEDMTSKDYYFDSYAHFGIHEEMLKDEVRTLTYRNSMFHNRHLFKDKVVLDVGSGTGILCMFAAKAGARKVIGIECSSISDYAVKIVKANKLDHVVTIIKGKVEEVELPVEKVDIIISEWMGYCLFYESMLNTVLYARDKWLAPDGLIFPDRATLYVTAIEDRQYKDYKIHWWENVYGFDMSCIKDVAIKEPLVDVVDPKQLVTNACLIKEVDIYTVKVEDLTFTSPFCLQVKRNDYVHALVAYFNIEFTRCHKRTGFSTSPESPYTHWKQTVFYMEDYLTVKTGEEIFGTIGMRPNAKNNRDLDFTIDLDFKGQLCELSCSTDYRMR

Row | pIC50 | Structure (SMILES)
1 | 6.29 | CNCCN(C)Cc1cccc(-c2cnc3c(c2)OCC(=O)N3)c1 [Compound 355]
2 | 6.12 | COc1cccc(CNC(=O)c2cncc(-c3ccc(CNCCN)cc3)c2)c1 [Compound 356]
3 | 7.11 | NCCNCc1ccc(-c2cnc3c(c2)OCC(=O)N3)cc1 [Compound 358]
